Source: patent US11338007B2, “Combination formulation of three antiviral compounds” (priority 2016, dated 2022)

Experiments:
[1] = Chemical and physical stability of Formulation G film-coated tablets Lots A and B (Tables 11A, 11B); assay type: physicochemical
Method: In some embodiments, the film-coated tablets were packaged in 75 and 100 mL white HDPE bottles (Lots A and B, respectively, as described in Tables 11A, 11B) with 1 g silica gel desiccant canisters and a polyester fiber coil. The 75 and 100 mL HDPE bottles contained fourteen and twenty eight tablets, respectively. Each HDPE bottle was capped using a continuous thread, child-resistant polypropylene screw cap with an […], aluminum-faced line. The packaged tablets (14 and 28 counts) were evaluated for stability at 40° C./75% RH and 25° C./60% RH. Additionally, the 14-count bottles (without cap) were evaluated for stability under open conditions at 40° C./75% RH.

[2] = Solid-state compatibility of sofosbuvir/velpatasvir SSD/voxilaprevir SSD granules (Table 7); assay type: physicochemical; conditions: for LS / Total Imp./Deg. Products: granules Lot F
Method: Sofosbuvir, velpatasvir SSD, and voxilaprevir SSD are chemically and physically compatible in the solid-state. The solid-state compatibility of sofosbuvir, velpatasvir SSD, and voxilaprevir SSD was evaluated by preparing a powder blend composed of 49.75% w/w sofosbuvir, 24.88% w/w of velpatasvir SSD, and 24.88% w/w of voxilaprevir SSD, and 0.25% w/w magnesium stearate (added as a lubricant). The powder blend was dry granulated using a roller compactor and then milled. The resulting granules (Lot F) contained 400 mg of sofosbuvir, 100 mg velpatasvir (as 200 mg velpatasvir SSD), and 100 mg voxilaprevir (as 200 mg voxilaprevir SSD) equivalent to the relative compositions in the sofosbuvir/velpatasvir/voxilaprevir tablet: 400/100/100 mg.
The chemical and physical stability of sofosbuvir/velpatasvir SSD/voxilaprevir SSD granules, packaged in glass vials (protected from light), was evaluated for 6 months at 25° C./60% RH and 40° C./75% RH under open and closed conditions. As summarized in Table 7, sofosbuvir, velpatasvir, and voxilaprevir were chemically stable with no increase in total impurities/degradation products of sofosbuvir (remaining at 0.0%), velpatasvir (remaining between 0.4 and 0.5%), and voxilaprevir (remaining between 1.1 and 1.4%) after a 6 month storage period. No upward trend in the content of degradation products was observed over the time period studied.

[3] = 25° C./60% RH (Closed), 3 months
[4] = 25° C./60% RH (Closed), 6 months
[5] = 40° C./75% RH (Closed), 1 month
[6] = 40° C./75% RH (Closed), 3 months
[7] = 40° C./75% RH (Closed), 6 months

CC(C)OC(=O)C(C)N[P@](=O)(OC[C@H]1O[C@@H](n2ccc(=O)[nH]c2=O)[C@](C)(F)[C@@H]1O)Oc1ccccc1 (stereo in doubt) [sofosbuvir, (S)-isopropyl 2-(((S)-(((2R,3R,4R,5R)-5-(2,4-dioxo-3,4-dihydropyrimidin-1(2H)-yl)-4-fluoro-3-hydroxy-4-methyltetrahydrofuran-2-yl)methoxy)(phenoxy)phosphoryl)amino)propanoate]
99.4%: LS [2, 6]
0.0%: total impurities/degradation products ([1]; Formulation G tablets, open conditions at 40° C./75% RH for 6 months) | Total Imp./Deg. ([1]; Lot A (14 ct), 25° C./60% RH Closed, 1 month) | Total Imp./Deg. ([1]; Lot A (14 ct), 25° C./60% RH Closed, 3 months) | Total Imp./Deg. ([1]; Lot A (14 ct), 25° C./60% RH Closed, 6 months) | Total Imp./Deg. ([1]; Lot A (14 ct), 40° C./75% RH Closed, 1 month) | Total Imp./Deg. ([1]; Lot A (14 ct), 40° C./75% RH Closed, 3 months) | Total Imp./Deg. ([1]; Lot A (14 ct), 40° C./75% RH Closed, 6 months) | Total Imp./Deg. ([1]; Lot A (14 ct), 40° C./75% RH Open, 1 month) | Total Imp./Deg. ([1]; Lot A (14 ct), 40° C./75% RH Open, 3 months) | Total Imp./Deg. ([1]; Lot A (14 ct), 40° C./75% RH Open, 6 months) | Total Imp./Deg. ([1]; Lot A (14 ct), Initial) | Total Imp./Deg. ([1]; Lot B (28 ct), 25° C./60% RH Closed, 1 month) | Total Imp./Deg. ([1]; Lot B (28 ct), 25° C./60% RH Closed, 3 months) | Total Imp./Deg. ([1]; Lot B (28 ct), 25° C./60% RH Closed, 6 months) | Total Imp./Deg. ([1]; Lot B (28 ct), 40° C./75% RH Closed, 1 month) | Total Imp./Deg. ([1]; Lot B (28 ct), 40° C./75% RH Closed, 3 months) | Total Imp./Deg. ([1]; Lot B (28 ct), 40° C./75% RH Closed, 6 months) | Total Imp./Deg. ([1]; Lot B (28 ct), Initial) | total impurities/degradation products ([1]; packaged Formulation G tablets, 40° C./75% RH and 25° C./60% RH for 6 months) | Total Imp./Deg. Products [2, 3] | Total Imp./Deg. Products [2, 4] | Total Imp./Deg. Products [2, 5] | Total Imp./Deg. Products [2, 6] | Total Imp./Deg. Products [2, 7] | Total Imp./Deg. Products ([2]; 40° C./75% RH (Open), 1 month) | Total Imp./Deg. Products ([2]; 40° C./75% RH (Open), 3 months) | Total Imp./Deg. Products ([2]; 40° C./75% RH (Open), 6 months) | Total Imp./Deg. Products ([2]; Initial, 0 months) | total impurities/degradation products ([2]; granules, over 6 month storage at 25° C./60% RH and 40° C./75% RH, open and closed)
99.5%: LS [2, 5]
103.5%: LS ([2]; Initial, 0 months)
101.1%: LS [2, 3]
97.2%: LS [2, 7]
99.1%: LS [2, 4]
101.3%: LS ([2]; 40° C./75% RH (Open), 1 month)
98.5%: LS ([2]; 40° C./75% RH (Open), 3 months)
95.6%: LS ([2]; 40° C./75% RH (Open), 6 months)
